Tested on: A2780 cells
Assay: Expression of the isolated cDNA fragment (differential display, RT-PCR) in A2780 cells treated with cytotoxic agents
Type: cell-based, human
Conditions: for expression of the cDNA fragment: A2780 cells after treatment with the compound
Procedure: Human ovary carcinoma A2780 cells were treated for 1 hour with an antitumor derivative of distamycin-A at its 50% growth-inhibiting concentration; at the end of the treatment and after 6 and 24 hours the total RNA was isolated by column extraction (SVTotal RNA, Promega Italia) and reverse-transcribed using poly-T primers as indicated in the differential-display kit (GenHunter). The fragments thus obtained were separated on denaturing polyacrylamide gel and detected by autoradiography. The bands whose intensity differed from controls were isolated and purified. One of them (fragment 1), after purification and ^32P-labeling (rediprime kit, Amersham), was used as probe in Northern Blot experiments. The RNA from the same cells was separated on agarose gel, transferred onto nylon membrane and hybridized with the probe.
Cells A2780 were treated with taxol and cisplatin (DDP) and the RNA was extracted before and 24 hours after the treatment. […] A fragment of beta-actin gene was used as internal control.

SMILES | expression of the cDNA fragment | specific mRNA band by RT-PCR versus control cells (A2780 cells, RNA 24 hours after treatment, beta-actin internal control)
N.N.[Cl][Pt][Cl] [cisplatin] | increased production of the same fragment | more intense than that of control cells
COc1cccc2c1C(=O)c1c(O)c3c(c(O)c1C2=O)C[C@@](O)(C(=O)CO)C[C@@H]3O[C@H]1C[C@H](N)[C@H](O)[C@H](C)O1 [doxorubicin] | increased production of the same fragment | 
O=c1[nH]cc(F)c(=O)[nH]1 [fluorouracil] | increased production of the same fragment | 
CC(=O)O[C@H]1C(=O)[C@@]2(C)[C@H]([C@H](OC(=O)c3ccccc3)[C@]3(O)C[C@H](OC(=O)[C@H](O)[C@@H](NC(=O)c4ccccc4)c4ccccc4)C(C)=C1C3(C)C)[C@]1(OC(C)=O)CO[C@@H]1C[C@@H]2O [taxol] | increased production of the same fragment | 
